Test results: US10414769B2, “5,8-dimethyl-9-phenyl-5,8-dihydro-6H-pyrazolo[3,4-h]quinazolin-2-yl)-(1H-pyrazol-3-yl)-amines as IGF-1R/IR inhibitors” (Boehringer Ingelheim International GmbH, priority 2015, dated 2019)

Tests used:
STK6 (AURKA (Aurora A)) = target: T1, STK6 (AURKA (Aurora A)) (Homo sapiens, UniProt O14965); experiment: Z'-LYTE kinase selectivity assay STK6; type: biochemical; conditions: read-out: STK6 (Aur A) % inhibition
T1 construct: purchased Life Technologies PV 3612
T1 sequence (O14965 1-403): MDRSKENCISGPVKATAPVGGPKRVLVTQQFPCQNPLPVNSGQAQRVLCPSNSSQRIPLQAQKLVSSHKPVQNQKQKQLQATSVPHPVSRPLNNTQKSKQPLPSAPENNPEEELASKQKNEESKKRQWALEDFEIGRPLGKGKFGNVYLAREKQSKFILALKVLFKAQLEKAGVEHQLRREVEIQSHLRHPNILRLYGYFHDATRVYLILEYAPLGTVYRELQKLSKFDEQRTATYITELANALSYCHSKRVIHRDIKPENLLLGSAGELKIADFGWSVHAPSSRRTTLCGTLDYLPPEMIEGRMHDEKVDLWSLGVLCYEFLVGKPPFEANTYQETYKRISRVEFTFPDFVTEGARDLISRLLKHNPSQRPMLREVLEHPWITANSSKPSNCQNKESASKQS
Source text: (§1) In order to compare the kinase selectivity of compounds (I) according to the invention with known prior art compounds the commercially provided SelectScreen® Kinase Profiling Service (Z′-LYTE®) was used (Life Technologies GmbH, Darmstadt, Germany) to investigate the ability of the compounds to inhibit a number of different, representatively selected human kinases. Further details regarding this service are available on the Life Technologies website at
(§2) The Z′-LYTE® biochemical assay employs a fluorescence-based, coupled-enzyme format and is based on the differential sensitivity of phosphorylated and non-phosphorylated peptides to proteolytic cleavage. The peptide substrate is labeled with two fluorophores—one at each end—that make up a FRET pair.
(§3) In the primary reaction, the kinase transfers the gamma-phosphate of ATP to a single tyrosine, serine or threonine residue in a synthetic FRET-peptide. In the secondary reaction, a site-specific protease recognizes and cleaves non-phosphorylated FRET-peptides. Phosphorylation of FRET-peptides suppresses cleavage by the Development Reagent. Cleavage disrupts FRET between the donor (i.e., coumarin) and acceptor (i.e., fluorescein) fluorophores on the FRET-peptide, whereas uncleaved, phosphorylated FRET-peptides maintain FRET. A ratiometric method, which calculates the ratio (the Emission Ratio) of donor emission to acceptor emission after excitation of the donor fluorophore at 400 nm, is used to quantitate reaction progress, as shown in the equation below.
(§4) The Test Compounds are screened at 1 μM.
The 2×AURKA (Aurora A) (# PV 3612)/Ser/Thr 01 (Z′-LYTE® Kinase Assay Kit—Ser/Thr 1 Peptide, # PV 3174) mixture is prepared in 50 mM HEPES pH 7.5, 0.01% BRIJ-35, 10 mM MgCl2, 1 mM EGTA. The final 10 μL Kinase Reaction consists of 0.91-12.2 ng AURKA (Aurora A) and 2 μM Ser/Thr 01 in 50 mM HEPES pH 7.5, 0.01% BRIJ-35, 10 mM MgCl2, 1 mM EGTA. After the 1 hour Kinase Reaction incubation, 5 μL of a 1:4096 dilution of Development Reagent A is added.

ACVR1B (ALK4) = target: T2, ACVR1B (ALK4) (Homo sapiens, UniProt P36896); experiment: Z'-LYTE kinase selectivity assay ACVR1B; type: biochemical
T2 construct: purchased Life Technologies PV4312
T2 sequence (P36896 24-505): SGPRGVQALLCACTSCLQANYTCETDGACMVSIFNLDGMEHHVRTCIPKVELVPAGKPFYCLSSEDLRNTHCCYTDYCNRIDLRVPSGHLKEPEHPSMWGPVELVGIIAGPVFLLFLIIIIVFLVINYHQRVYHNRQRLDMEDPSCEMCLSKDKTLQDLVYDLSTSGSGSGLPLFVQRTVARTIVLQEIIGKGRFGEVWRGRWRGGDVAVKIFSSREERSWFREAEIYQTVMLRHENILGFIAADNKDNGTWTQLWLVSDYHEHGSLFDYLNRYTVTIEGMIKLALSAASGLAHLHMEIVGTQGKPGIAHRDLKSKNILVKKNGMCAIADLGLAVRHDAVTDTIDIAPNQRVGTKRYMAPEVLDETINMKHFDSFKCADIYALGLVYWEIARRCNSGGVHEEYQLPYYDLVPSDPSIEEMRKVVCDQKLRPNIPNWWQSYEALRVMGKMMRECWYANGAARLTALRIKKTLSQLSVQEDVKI
Source text: as §1, §2, §3, §4
The 2×ACVR1B (ALK4) (# PV4312)/Ser/Thr 16 (Z′-LYTE® Kinase Assay Kit—Ser/Thr 16 Peptide, # PV 3802) mixture is prepared in 50 mM HEPES pH 7.5, 0.01% BRIJ-35, 10 mM MnCl2, 1 mM EGTA, 2 mM DTT, 0.02% NaN3. The final 10 μL Kinase Reaction consists of 9.15-60 ng ACVR1B (ALK4) and 2 μM Ser/Thr 16 in 50 mM HEPES pH 7.5, 0.01% BRIJ-35, 5 mM MgCl2, 5 mM MnCl2, 1 mM EGTA, 1 mM DTT, 0.01% NaN3. After the 1 hour Kinase Reaction incubation, 5 μL of a 1:16 dilution of Development Reagent B is added.

**Q.** Which inhibition at 1 µM (STK6 (AURKA (Aurora A))) does the source give for `C[C@@H]1Cc2nn(C)c(-c3ccccc3)c2-c2nc(Nc3ccn(CCN4CCN(C)CC4)n3)ncc21` [Compound I-1] here?
**A.** -15%

**Q.** And the inhibition at 1 µM (ACVR1B (ALK4))?
**A.** -10%

**Q.** What does the source list for `C[C@@H]1Cc2nn(C)c(-c3ccccc3)c2-c2nc(Nc3ccn(CCN4CCN(CC(=O)OC5CCOCC5)CC4)n3)ncc21` [Compound I-8]?
**A.** inhibition at 1 µM (STK6 (AURKA (Aurora A))): 6%; inhibition at 1 µM (ACVR1B (ALK4)): -4%

**Q.** For `C[C@@H]1Cc2nn(C)c(-c3ccccc3)c2-c2nc(Nc3ccn(CCN4CCN(CC(C)(C)O)CC4)n3)ncc21` [Compound I-3], which inhibition at 1 µM (STK6 (AURKA (Aurora A))) is on record?
**A.** 14%

**Q.** What about the inhibition at 1 µM (ACVR1B (ALK4)) of the same compound?
**A.** 0%

**Q.** For `CC(O)CN1CCN(CCn2ccc(Nc3ncc4c(n3)-c3c(nn(C)c3-c3ccccc3)C[C@H]4C)n2)CC1` (some centres unmarked) [Compound I-7], which inhibition at 1 µM (STK6 (AURKA (Aurora A))) is on record?
**A.** 5%

**Q.** And the inhibition at 1 µM (ACVR1B (ALK4))?
**A.** 0%

**Q.** Which inhibition at 1 µM (STK6 (AURKA (Aurora A))) does the source give for `C[C@@H]1Cc2nn(C)c(-c3ccccc3)c2-c2nc(Nc3ccn(CCN4CCOCC4)n3)ncc21` [Compound I-2] here?
**A.** 12%

**Q.** What about the inhibition at 1 µM (ACVR1B (ALK4)) of the same compound?
**A.** 0%

**Q.** `C[C@@H]1Cc2nn(C)c(-c3ccccc3)c2-c2nc(Nc3ccn(CCN4CCN(CC5CCCO5)CC4)n3)ncc21` (some centres unmarked) [Compound I-9] was tested. Which inhibition at 1 µM (STK6 (AURKA (Aurora A))) did it give?
**A.** 10%

**Q.** What about the inhibition at 1 µM (ACVR1B (ALK4)) of the same compound?
**A.** 7%

**Q.** What does the source list for `COCCN1CCN(CCn2ccc(Nc3ncc4c(n3)-c3c(nn(C)c3-c3ccccc3)C[C@H]4C)n2)CC1` [Compound I-11]?
**A.** inhibition at 1 µM (STK6 (AURKA (Aurora A))): -12%; inhibition at 1 µM (ACVR1B (ALK4)): -11%
